Publication PMC3514216, “SRC Homology 2 Domain Binding Sites in Insulin, IGF-1 and FGF receptor mediated signaling networks reveal an extensive potential interactome” (Cell Communication and Signaling : CCS, 2012)

Test system: panel of 50 SH2 domains
Test: SPOT peptide array probed with each of 50 GST-SH2 domains
Format: binding
Conditions: SPOT192 peptide array; for SH2 Domains >3X: list of GST-SH2 domains with spot intensity >3X array mean (array-positive); for 2X < SH2 Domains < 3X: list of GST-SH2 domains with spot intensity between 2X and 3X array mean (indeterminate range)
Excerpt: The use of addressable peptide arrays is a reproducible and semi-quantitative approach that has been extensively validated for studying protein interactions with peptide ligands. To investigate connections between SH2 domain proteins and their putative phosphorylated docking sites on cell surface receptors, we developed addressable arrays consisting of 192 phosphotyrosine peptides. This peptide set was assembled using 71 phosphotyrosine peptide motifs corresponding to all of the cytoplasmic tyrosine residues within the FGF receptors (FGFR1-4), insulin receptor (InsR) and IGF-1 receptor (IGF-1R) (Figure 1A). Activation of these receptors results in the phosphorylation of associated scaffold proteins, and so 75 phosphotyrosine peptides corresponding to a comprehensive list of tyrosine residues within insulin receptor substrates (IRS-1 and IRS-2) and fibroblast receptor substrates (FRS-2 and FRS-3) were included. In addition, 33 phosphotyrosine peptides were incorporated from the downstream signaling proteins PLC-γ1, p130Cas (BCAR1) and p62DOK1. […] These control peptides provide a reference and establish the empirical cut-off for designated binding interactions (Table 1). No discrimination was made against peptides on the basis of reported phosphorylation state in order to examine a diverse and unbiased set of motifs. The resulting set of 192 phosphotyrosine peptides and their corresponding position in the proteins of origin is noted in Additional file 1: Table S1. Addressable arrays were synthesized as membrane-bound 11-mer peptides using the SPOT synthesis technique. While the majority of SH2 domains recognize residues C-terminal to the phosphotyrosine in their cognate peptide ligands, additional contacts between SH2 domains and residues N-terminal to the phosphotyrosine are observed for the SH2 domain of Sh2d1a (SAP) and cannot be ruled out in other cases. Peptides were synthesized with six flanking residues C-terminal to the phosphotyrosine and four residues N-terminal to the phosphotyrosine.
To assess the potential network of SH2 domain interactions we selected 50 SH2 domains representing 28 of the 38 families of SH2 domains (Figure 1B) all of which we have previously shown can be expressed and purified. These include a number of extensively studied SH2 domains (Src, Grb2, PLCγ), as well as a number of less studied SH2 domains from proteins such as Shd, She, Shf, Slnk (Sh2d6), Sh2d1a (SAP), Sh2d1b (Eat-2), and Brdg1. To address potential variability in specificity within families we employed all members from the SHB, CRK, GRB2, SRC and ABL families (families are indicated with complete Capitalized lettering).
SH2 domains were arrayed as GST fusion proteins and detected using anti-GST primary antibodies and near-infrared labeled secondary antibodies. In an effort to present a dataset with minimal false positives, we chose an empirical cutoff based on the array average across all peptide spots to classify interactions (Figure 1A). In cases where the intensity of the signal for an individual SH2-domain binding event exceeded the mean intensity of all the peptides on the membrane by three-fold were scored as “array positives” [22]. Non-binding was judged in cases where the intensity of a spot was less than the mean intensity of all spots on the membrane and these were scored as “array negatives”. Peptides with signal intensities between 1X and 3X mean were scored as “indeterminate” and ascribed as neither array positive binding interactions nor array-negative non-binders. […] This signature may be indicative of promiscuity differences between phosphopeptides or there may be a subset of peptides which interact in a nonspecific fashion with either the GST fusion tag or one of the antibodies used for detection, resulting in false positives. […]

Substance | SH2 Domains >3X | 2X < SH2 Domains < 3X
AACDpYESCATA [A01] | PI3K1_C | CRKL, HCK
ADDGpYMPMTPG [D18] | HCK, SRC | PI3K1_C
ADNDpYIIPLPD [A07] | BRK, DAPP1, PLCG2_N, PLCG2_C, SRC, VAV1 | HCK, LCK, LYN, PI3K1_N, RIN1, SH2D1B, YES
AEDSpYGLVAPA [D06] | FGR, FYN, HCK, LCK, LYN, SH2D1B, SHC1, SHIP1, SRC, YES | BLK
AEDVpYDVPPPA [A04] | CRK, CRKL, HCK, NCK1, SRC | FYN, LYN, YES
AEPDpYGALYEG [H01] | FGR, FYN, HCK, LYN, SH2D1B, SHC1, SHIP1, SLNK, SRC, YES, ZAP70_N | BLK, BMX, LCK
AEPQpYEEIPIY [A10] | BLK, BRK, FER, FGR, HCK, LYN, NCK1, PLCG2_C, SHC1, SRC, YES | ABL1, BMX, DAPP1, FYN, LCK, RIN1, SH2D1B, SRC
AKHKpYLIALYT [D02] | BRDG1, BRK | BCAR3, BMX, FER, PLCG2_N, PTPN11_C, RIN1, SHF, TENC1
AKTGpYENFIHL [B10] | GADS, GRB2, GRB7, MIST, PI3K1_N, SH2D2A, SH3BP2, TENC1 | BRDG1, BRK
ALLNpYENLPSL [G05] | ABL1, ABL2, CRK, FER, GADS, GRAP, GRB2, GRB7, PI3K1_C, SH2D2A, SH3BP2, TENC1 | BRK, PI3K1_N
APVSpYADMRTG [C21] |  | MIST
ARLEpYYENEKK [B19] | GRB7, MIST, SH3BP2 | SH2D2A, SHF, SHD
ATDDpYAVPPPR [A02/H23] | CRK, CRKL, HCK | SRC
ATDLpYQVPPGP [H08] | CRK | CRKL
AYHPpYPEDYGD [D16] | BMX | MATK, SLNK
CGRSpYRRVSGD [D12] | BCAR3 | BRDG1, ITK, MIST, PLCG2_N, SHB, SHF, SYK_C, TENC1
CLRRpYGYDSNL [F22] | BCAR3, BMX, BRDG1, CRK, CRKL, DAPP1, FER, GRB7, MATK, MIST, PLCG2_N, SHB, SHF, SHD, TENC1 | ITK, PLCG2_C, PTPN11_C, RIN1, SH2D2A, SH3BP2
CTGDpYMNMSPV [C09] |  | PI3K1_C
DDPSpYVNVQNL [A06] | GADS, GRAP, GRB2, SH2D1B | 
DGMApYLNAKKF [A23] | BCAR3, BMX, BRDG1, FER, GRB2, MIST, PTPN11_N, PTPN11_C, RIN1, Sh2b, SHF, SHD, TENC1 | BRK, DAPP1, FGR, ITK, MATK, PI3K1_N, PI3K1_C, PLCG2_N, PLCG2_C, SH3BP2, SHB, SHE, YES
DGPLpYVIVEYA [E06] | ITK, MIST, RASA1_N, SHB, SHF, SHE, SYK_C | SHD, TENC1
DLKSpYLRSLRP [A22] | BCAR3, BMX, BRDG1, FER, MIST, PLCG2_N, Sh2b, SHB, SHF, TENC1 | BRK, ITK, MATK, PLCG2_C, PTPN11_C, RIN1, SHD, SYK_C
DLSApYASISFQ [C23] | PTPN11_N, PTPN11_C | SH2D1B, SHD, SHE
DNLPpYVQILKT [E03] | BRDG1, MIST, PI3K1_N, PTPN11_C, Sh2b, TENC1 | BCAR3, FER, GRAP, MATK, PI3K1_C, PTPN11_N, RIN1, SHD
DPMPpYEPALPQ [F05] | FYN, LYN, SHIP1, YES | FGR, LCK, SH2D1B, SHC1
DPNGpYMMMSPS [C07] | PI3K1_C | 
DSDQpYVLMSSP [D23] | FYN, LYN, PI3K1_N, PI3K1_C, SHIP1 | BLK, FGR, LCK, SH2D1B
